According to ChEMBL document CHEMBL4414578, “Design and synthesis of pentacyclic triterpene conjugates and their use in medicinal research” (Eur J Med Chem, 2019):

Experiments:
[1] = system: Human immunodeficiency virus 1; experiment: Antiviral activity against HIV-1 NL4-3 infected in human MT-4 cells; format: functional, organism-based; details: Human immunodeficiency virus 1, NL4-3, MT4
MCF7 = experiment: Antitumor activity against human MCF7 cells by SRB assay; format: functional, cell-based
A2780 = experiment: Antitumor activity against human A2780 cells by SRB assay; format: functional, cell-based
518A2 = experiment: Antitumor activity against human 518A2 cells by SRB assay; format: functional, cell-based
8505C = experiment: Antitumor activity against human 8505C cells by SRB assay; format: functional, cell-based
A549 = experiment: Antitumor activity against human A549 cells by SRB assay; format: functional, cell-based
Ehrlich = experiment: Cytotoxicity against mouse Ehrlich carcinoma cells assessed as reduction in cell viability after 48 hrs by MTT assay; format: functional, cell-based
P815 = experiment: Cytotoxicity against mouse P815 cells assessed as reduction in cell viability after 48 hrs by MTT assay; format: functional, cell-based; details: P815, 48 h
CCRF-CEM = experiment: Cytotoxicity against human CCRF-CEM cells assessed as reduction in cell viability; format: functional, cell-based
HT-29 = experiment: Cytotoxicity against human HT-29 cells assessed as reduction in cell viability after 72 hrs by MTT assay; format: functional, cell-based; details: HT-29, 72 h
L132 = experiment: Cytotoxicity against human L-132 cells assessed as reduction in cell viability after 72 hrs by MTT assay; format: functional, cell-based; details: L132, 72 h
DU-145 = experiment: Cytotoxicity against human DU145 cells assessed as reduction in cell viability after 72 hrs by MTT assay; format: functional, cell-based; details: DU-145, 72 h
PA-1 = experiment: Cytotoxicity against human PA1 cells assessed as reduction in cell viability after 72 hrs by MTT assay; format: functional, cell-based; details: PA-1, 72 h
Leishmania infantum = experiment: Antileishmanial activity against Leishmania infantum promastigotes after 2 to 24 hrs by Giemsa staining-based microscopic analysis; format: functional, organism-based
Plasmodium falciparum = experiment: Antimalarial activity against chloroquine-sensitive Plasmodium falciparum 3D7 by flow cytometry analysis; format: functional, organism-based
HEK-293T = experiment: Cytotoxicity against HEK293T cells assessed as reduction in cell viability; format: cell-based; details: Homo sapiens
[2] = Selectivity index, ratio of IC50 for HEK293T cells tobIC50 for chloroquine-sensitive Plasmodium falciparum 3D7; format: toxicity; details: human, read-out: Ratio IC50
[3] = system: Human immunodeficiency virus 1; experiment: Antiviral activity against HIV-1; format: functional, organism-based
[4] = system: Human immunodeficiency virus 1; experiment: Antiviral activity against HIV-1 3B; format: functional, organism-based; details: Human immunodeficiency virus 1, 3B

C=C(C)[C@@H]1CC[C@]2(C(=O)OCc3cn([C@H]4C[C@H](n5cc(C)c(=O)[nH]c5=O)O[C@@H]4CO)nn3)CC[C@]3(C)[C@H](CC[C@@H]4[C@@]5(C)CC[C@H](OC(=O)CC(C)(C)C(=O)O)C(C)(C)[C@@H]5CC[C@]43C)[C@@H]12
EC50 [1]: 0.1 µM

C=C(C)[C@@H]1CC[C@]2(C(=O)NCCNCCN)CC[C@]3(C)[C@H](CC[C@@H]4[C@@]5(C)CC[C@H](OC(C)=O)C(C)(C)[C@@H]5CC[C@]43C)[C@@H]12
IC50 (MCF7): 1.4 to 2.24 µM
IC50 (A2780): 1.4 to 2.24 µM
IC50 (518A2): 1.4 to 2.24 µM
IC50 (8505C): 1.4 to 2.24 µM
IC50 (A549): 1.4 to 2.24 µM

CC(=O)O[C@H]1C(CCC[P+](c2ccccc2)(c2ccccc2)c2ccccc2)C[C@]2(C)[C@H]3CC[C@@H]4[C@H]5[C@H](C(C)C)CC[C@]5(C(=O)O)CC[C@@]4(C)[C@]3(C)CC[C@H]2C1(C)C (some centres undefined)
IC50 (Ehrlich): 1.1 to 4.7 µM
IC50 (P815): 1.1 to 4.7 µM

C=C(/C=N/N=C/c1ccccn1)[C@@H]1CC[C@]2(C(=O)O)CC[C@]3(C)[C@H](CC[C@@H]4[C@@]5(C)CC[C@H](O)C(C)(C)[C@@H]5CC[C@]43C)[C@@H]12
IC50 (CCRF-CEM): 3.8 to 4.8 µM

C=C(C)[C@@H]1CC[C@]2(C(=O)O)CC[C@]3(C)[C@H](CC[C@@H]4[C@@]5(C)CC/C(=N\Nc6ccccc6)C(C)(C)[C@@H]5CC[C@]43C)[C@@H]12
IC50 (HT-29): 1 to 4 µM
IC50 (L132): 1 to 4 µM
IC50 (DU-145): 1 to 4 µM
IC50 (PA-1): 1 to 4 µM

C=C(C)[C@@H]1CC[C@]2(C(=O)NCCN)CC[C@]3(C)[C@H](CC[C@@H]4[C@@]5(C)CC[C@H](O)C(C)(C)[C@@H]5CC[C@]43C)[C@@H]12
IC50 (CCRF-CEM): 0.7 µM

C=C(C)[C@@H]1CC[C@]2(C(=O)O)CC[C@]3(C)[C@H](CC[C@@H]4[C@@]5(C)CC/C(=N\NC(C)=O)C(C)(C)[C@@H]5CC[C@]43C)[C@@H]12
IC50 (HT-29): 1 to 4 µM
IC50 (L132): 1 to 4 µM
IC50 (DU-145): 1 to 4 µM
IC50 (PA-1): 1 to 4 µM

C=C(CC=O)[C@@H]1CC[C@]2(COC(=O)n3ccnc3)CC[C@]3(C)[C@H](CC[C@@H]4[C@@]5(C)CC[C@H](O)C(C)(C)[C@@H]5CC[C@]43C)[C@@H]12
IC50 (Leishmania infantum): 51 µM

C=C(/C=N/N=C/c1ccccc1[N+](=O)[O-])[C@@H]1CC[C@]2(C(=O)O)CC[C@]3(C)[C@H](CC[C@@H]4[C@@]5(C)CC[C@H](O)C(C)(C)[C@@H]5CC[C@]43C)[C@@H]12
IC50 (CCRF-CEM): 3.8 to 4.8 µM

C=C(C)[C@@H]1CC[C@]2(C(=O)N3CCNCC3)CC[C@]3(C)[C@H](CC[C@@H]4[C@@]5(C)CC[C@H](O)C(C)(C)[C@@H]5CC[C@]43C)[C@@H]12
IC50 (CCRF-CEM): 0.8 µM

C=C(C)[C@@H]1CC[C@]2(C(=O)O)CC[C@]3(C)[C@H](CC[C@@H]4[C@@]5(C)CC/C(=N\Nc6ccc(F)cc6)C(C)(C)[C@@H]5CC[C@]43C)[C@@H]12
IC50 (HT-29): 1 to 4 µM
IC50 (L132): 1 to 4 µM
IC50 (DU-145): 1 to 4 µM
IC50 (PA-1): 1 to 4 µM

CC(=O)O[C@H]1C(CCC[P+](c2ccccc2)(c2ccccc2)c2ccccc2)C[C@]2(C)[C@H]3CC[C@@H]4[C@H]5[C@H](C(C)C)CC[C@]5(C(=O)OCc5ccccc5)CC[C@@]4(C)[C@]3(C)CC[C@H]2C1(C)C (some centres undefined)
IC50 (Ehrlich): 1.1 to 4.7 µM
IC50 (P815): 1.1 to 4.7 µM

COC(=O)[C@]12CC[C@@H](C(C)C)[C@@H]1[C@H]1CC[C@@H]3[C@@]4(C)CC(CCC[P+](c5ccccc5)(c5ccccc5)c5ccccc5)[C@@H](OC(C)=O)C(C)(C)[C@@H]4CC[C@@]3(C)[C@]1(C)CC2 (some centres undefined)
IC50 (Ehrlich): 1.1 to 4.7 µM
IC50 (P815): 1.1 to 4.7 µM

C=C(/C=N/N=C/c1ccccc1O)[C@@H]1CC[C@]2(C(=O)O)CC[C@]3(C)[C@H](CC[C@@H]4[C@@]5(C)CC[C@H](O)C(C)(C)[C@@H]5CC[C@]43C)[C@@H]12
IC50 (CCRF-CEM): 3.8 to 4.8 µM

C=C(C)[C@@H]1CC[C@]2(C(=O)NCCCN3CCN(CCCN)CC3)CC[C@]3(C)[C@H](CC[C@@H]4[C@@]5(C)CC[C@H](OC(C)=O)C(C)(C)[C@@H]5CC[C@]43C)[C@@H]12
IC50 (Plasmodium falciparum): 0.22 µM
IC50 (HEK-293T): 4 µM
selectivity ratio [2]: 23

C=C(C)[C@@H]1CC[C@]2(C(=O)OCCCCCCCC(=O)N[C@@H](CC(C)C)[C@@H](O)CC(=O)O)CC[C@]3(C)[C@H](CC[C@@H]4[C@@]5(C)CC[C@H](O)C(C)(C)[C@@H]5CC[C@]43C)[C@@H]12
IC50 [3]: 0.05 µM

COC(=O)[C@]12CC[C@@H](C(C)C)[C@@H]1[C@H]1CC[C@@H]3[C@@]4(C)CC(CCC[P+](c5ccccc5)(c5ccccc5)c5ccccc5)[C@H](OC(C)=O)C(C)(C)[C@@H]4CC[C@@]3(C)[C@]1(C)CC2 (some centres undefined)
IC50 (Ehrlich): 1.1 to 4.7 µM
IC50 (P815): 1.1 to 4.7 µM

C=C(C)[C@@H]1CC[C@]2(C(=O)O)CC[C@]3(C)[C@H](CC[C@@H]4[C@@]5(C)CC/C(=N\Nc6c(Cl)cc(Cl)cc6Cl)C(C)(C)[C@@H]5CC[C@]43C)[C@@H]12
IC50 (HT-29): 1 to 4 µM
IC50 (L132): 1 to 4 µM
IC50 (DU-145): 1 to 4 µM
IC50 (PA-1): 1 to 4 µM

C=C(CO)[C@@H]1CC[C@]2(C(=O)OCCCCCCCCCCC(=O)O)CC[C@]3(C)[C@H](CC[C@@H]4[C@@]5(C)CC[C@H](O)C(C)(C)[C@@H]5CC[C@]43C)[C@@H]12
IC50 [3]: 0.05 µM

C=C(C)[C@@H]1CC[C@]2(C(=O)n3ccnc3)CC[C@]3(C)[C@H](CC[C@@H]4[C@@]5(C)C=C(OC(=O)n6ccnc6)C(=O)C(C)(C)[C@@H]5CC[C@]43C)[C@@H]12
IC50 (Leishmania infantum): 26 µM

C=C(C)[C@@H]1CC[C@]2(C(=O)O)CC[C@]3(C)[C@H](CC[C@@H]4[C@@]5(C)CC[C@H](O)C(C)(C)[C@@H]5CC[C@]43C)[C@@H]12 [BETULINIC ACID]
IC50 (MCF7): 0.33 to 1.34 µM
IC50 (A2780): 0.33 to 1.34 µM
IC50 (Ehrlich): 54 µM
IC50 (518A2): 0.33 to 1.34 µM
IC50 (P815): 41 µM
IC50 (8505C): 0.33 to 1.34 µM
IC50 (A549): 0.33 to 1.34 µM

CCCCCCCCCCCCCCCCOP(=O)([O-])OCC[N+](C)(C)C [MILTEFOSINE]
EC50 [4]: 0.01 to 0.33 µM
IC50 (Leishmania infantum): 6 µM

CC1(C)CC[C@]2(C(=O)O)CC[C@]3(C)C(=CC[C@@H]4[C@@]5(C)CC[C@H](O)C(C)(C)[C@@H]5CC[C@]43C)[C@@H]2C1 [OLEANOLIC_ACID]
EC50 [4]: 0.01 to 0.33 µM

C[C@H]1[C@H](C)CC[C@]2(C(=O)O)CC[C@]3(C)C(=CC[C@@H]4[C@@]5(C)CC[C@H](O)C(C)(C)[C@@H]5CC[C@]43C)[C@H]12 [URSOLIC ACID]
EC50 [4]: 0.01 to 0.33 µM

Cc1cn([C@H]2C[C@H](N=[N+]=[N-])[C@@H](CO)O2)c(=O)[nH]c1=O [ZIDOVUDINE]
EC50 [1]: 0.1 µM
